In ChEMBL document CHEMBL2321853, “Novel acylethanolamide derivatives that modulate body weight through enhancement of hypothalamic pro-opiomelanocortin (POMC) and/or decreased neuropeptide Y (NPY)” (J Med Chem, 2013):
The source made the active and inactive calls. The rule behind the calls is not given here.

Tests used:
Mus musculus [1] = assay: Antiobesity activity in Sabra mouse assessed as change in food consumption at 1 mg/kg, ip administered on day 8, 9, 10, 11, 14, 18, 24 and 32 measured after 5 weeks relative to control; assay type: functional; conditions: route intraperitoneal
Mus musculus [2] = assay: Antiobesity activity in high fat diet fed C57BL/6 mouse assessed as reduction in body weight at 1 mg/kg, ip administered on day 3, 6, 8, 9, 10 measured on day 8 relative to control; assay type: functional; parameters: scale not given: the % may be the effect or the level left; conditions: route intraperitoneal
Mus musculus [3] = assay: Antiobesity activity in Sabra mouse assessed as change in body weight at 1 mg/kg, ip administered on day 8, 9, 10, 11, 14, 18, 24 and 32 measured on day 14 relative to control; assay type: functional; conditions: route intraperitoneal
Mus musculus [4] = assay: Antiobesity activity in C57BL/6 mouse assessed as weight loss at 5 mg/kg, ip administered on day 1, 4, 5, 7, 17, 15, 19 measured on day 15 relative to control; assay type: functional; conditions: route intraperitoneal
Mus musculus [5] = assay: Antiobesity activity in Sabra mouse assessed as reduction in body weight at 1 mg/kg, ip administered on day 0, 10, 11, 12, 24, 29 measured on day 12 relative to control; assay type: functional; parameters: scale not given: the % may be the effect or the level left; conditions: route intraperitoneal
Mus musculus [6] = assay: Antiobesity activity in Sabra mouse assessed as reduction in body weight at 1 mg/kg, ip administered on day 0, 10, 11, 12, 24, 29 measured on day 26 relative to control; assay type: functional; parameters: scale not given: the % may be the effect or the level left; conditions: route intraperitoneal
Mus musculus [7] = assay: Enhancement of motor activity in Sabra mouse at 10 mg/kg, ip administered on day 6 to 10 by open field test relative to control; assay type: functional; conditions: route intraperitoneal
Mus musculus [8] = assay: Antiobesity activity in Sabra mouse assessed as change in body weight at 1 mg/kg, ip administered on day 8, 12 and 43 measured on day 15 relative to control; assay type: functional; conditions: route intraperitoneal
Mus musculus [9] = assay: Enhancement of cognitive function C57BL/6 mouse assessed as reduction food consumption at 1 mg/kg, ip administered on day 3, 6, 8, 9, 10 measured on day 10; assay type: functional, organism-based; parameters: dose 1 mg/kg
Mus musculus [10] = assay: Antiobesity activity in C57BL/6 mouse assessed as weight loss at 5 mg/kg, ip administered on day 1, 4, 5, 7, 17, 15, 19 measured on day 8 relative to control; assay type: functional; conditions: route intraperitoneal
Mus musculus [11] = assay: Enhancement of cognitive function in Sabra mouse at 1 mg/kg, ip measured on day 8 to 12 by eight-arm maze test; assay type: functional, organism-based; parameters: dose 1 mg/kg
Mus musculus [12] = assay: Antiobesity activity in C57BL/6 mouse assessed as weight loss at 5 mg/kg, ip administered on day 1, 4, 5, 7, 17, 15, 19 measured on day 19 relative to control; assay type: functional; conditions: route intraperitoneal
Mus musculus [13] = assay: Increase in ALT levels in Sabra mouse at 1 mg/kg, ip administered on day 8, 12 and 43 measured on day 74; assay type: ADME, organism-based; parameters: dose 1 mg/kg, route intraperitoneal; conditions: in vivo
Mus musculus [14] = assay: Antiobesity activity in Sabra mouse assessed as reduction in body weight at 1 mg/kg, ip administered on day 0, 10, 11, 12, 24, 29 measured on day 36 relative to control; assay type: functional; parameters: scale not given: the % may be the effect or the level left; conditions: route intraperitoneal
Mus musculus [15] = assay: Toxicity in Sabra mouse assessed as morphological changes in glial cells at 1 mg/kg, ip administered on day 8, 9, 10, 11, 14, 18, 24 and 32 by hematoxylin and eosin staining-based histopathological analysis; assay type: organism-based; parameters: dose 1 mg/kg, route intraperitoneal; conditions: in vivo
Mus musculus [16] = assay: Antiobesity activity in C57BL/6 mouse assessed as change in glucose level in blood at 5 mg/kg, ip administered on day 1, 4, 5, 7, 17, 15, 19 measured on day 19 relative to control; assay type: functional; conditions: route intraperitoneal
Mus musculus [17] = assay: Antiobesity activity in Sabra mouse assessed as reduction in body weight at 1 mg/kg, ip administered on day 0, 10, 11, 12, 24, 29 measured on day 39 relative to control; assay type: functional; parameters: scale not given: the % may be the effect or the level left; conditions: route intraperitoneal
Mus musculus [18] = assay: Antiobesity activity in Sabra mouse assessed as change in food consumption at 1 mg/kg, ip administered on day 8, 9, 10, 11, 14, 18, 24 and 32 measured after 2 weeks relative to control; assay type: functional; conditions: route intraperitoneal
Mus musculus [19] = assay: Antiobesity activity in Sabra mouse assessed as reduction in body weight at 1 mg/kg, ip administered on day 0, 10, 11, 12, 24, 29 measured on day 19 relative to control; assay type: functional; parameters: scale not given: the % may be the effect or the level left; conditions: route intraperitoneal
Mus musculus [20] = assay: Antiobesity activity in Sabra mouse assessed as reduction in body weight at 1 mg/kg, ip administered on day 0, 10, 11, 12, 24, 29 measured on day 22 relative to control; assay type: functional; parameters: scale not given: the % may be the effect or the level left; conditions: route intraperitoneal
Mus musculus [21] = assay: Antiobesity activity in Sabra mouse assessed as change in body weight at 1 mg/kg, ip administered on day 8, 12 and 43 measured on day 43 relative to control; assay type: functional; conditions: route intraperitoneal
Mus musculus [22] = assay: Antiobesity activity in Sabra mouse assessed as change in body weight at 1 mg/kg, ip administered on day 8, 9, 10, 11, 14, 18, 24 and 32 measured on day 25 relative to control; assay type: functional; conditions: route intraperitoneal
Mus musculus [23] = assay: Antiobesity activity in Sabra mouse assessed as change in body weight at 1 mg/kg, ip administered on day 8, 9, 10, 11, 14, 18, 24 and 32 measured on day 21 relative to control; assay type: functional; conditions: route intraperitoneal
Mus musculus [24] = assay: Antiobesity activity in Sabra mouse assessed as change in body weight at 1 mg/kg, ip administered on day 8, 12 and 43 measured on day 29 relative to control; assay type: functional; conditions: route intraperitoneal
Mus musculus [25] = assay: Antiobesity activity in Sabra mouse assessed as change in body weight at 1 mg/kg, ip administered on day 8, 9, 10, 11, 14, 18, 24 and 32 measured on day 30 relative to control; assay type: functional; conditions: route intraperitoneal
Mus musculus [26] = assay: Antiobesity activity in Sabra mouse assessed as change in body weight at 1 mg/kg, ip administered on day 8, 12 and 43 measured on day 8 relative to control; assay type: functional; conditions: route intraperitoneal
Mus musculus [27] = assay: Antiobesity activity in high fat diet fed C57BL/6 mouse assessed as reduction food consumption at 1 mg/kg, ip administered on day 3, 6, 8, 9, 10 measured after week 1 relative to control; assay type: functional; parameters: scale not given: the % may be the effect or the level left; conditions: route intraperitoneal
[28] = target: Transient receptor potential cation channel subfamily V member 1 (Rattus norvegicus) (UniProt O35433); assay: Displacement of [3H]resiniferatoxin from TRPV1 receptor in Wistar rat spinal cord at 10 uM relative to control
Sequence of Transient receptor potential cation channel subfamily V member 1 (Rattus norvegicus) (O35433 whole entry): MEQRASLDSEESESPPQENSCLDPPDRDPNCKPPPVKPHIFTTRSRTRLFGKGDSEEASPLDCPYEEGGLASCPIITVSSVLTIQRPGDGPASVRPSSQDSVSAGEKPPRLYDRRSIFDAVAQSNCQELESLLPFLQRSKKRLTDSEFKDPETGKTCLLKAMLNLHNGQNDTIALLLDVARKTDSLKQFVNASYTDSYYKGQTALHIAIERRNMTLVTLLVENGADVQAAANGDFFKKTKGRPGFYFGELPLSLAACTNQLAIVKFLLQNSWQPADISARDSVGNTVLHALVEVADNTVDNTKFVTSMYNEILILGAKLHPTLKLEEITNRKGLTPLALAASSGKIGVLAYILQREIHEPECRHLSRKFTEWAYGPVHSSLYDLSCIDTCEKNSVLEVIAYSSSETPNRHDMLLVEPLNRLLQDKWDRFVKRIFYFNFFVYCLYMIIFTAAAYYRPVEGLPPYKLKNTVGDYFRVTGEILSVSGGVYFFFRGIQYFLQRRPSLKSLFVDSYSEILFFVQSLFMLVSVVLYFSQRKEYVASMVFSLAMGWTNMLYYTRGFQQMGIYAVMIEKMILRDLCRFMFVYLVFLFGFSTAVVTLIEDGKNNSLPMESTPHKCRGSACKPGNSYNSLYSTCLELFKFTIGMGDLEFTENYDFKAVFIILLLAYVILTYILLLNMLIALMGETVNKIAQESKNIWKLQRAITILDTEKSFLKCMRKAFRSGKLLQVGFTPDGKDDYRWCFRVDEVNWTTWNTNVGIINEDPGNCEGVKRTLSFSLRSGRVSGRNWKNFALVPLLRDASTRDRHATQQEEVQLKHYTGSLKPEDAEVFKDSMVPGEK

Mus musculus [29] = assay: Antiobesity activity in Sabra mouse assessed as change in body weight at 1 mg/kg, ip administered on day 8, 12 and 43 measured on day 36 relative to control; assay type: functional; conditions: route intraperitoneal
Mus musculus [30] = assay: Increase in motor activity Sabra mouse at 1 mg/kg, ip administered on day 8, 9, 10, 11, 14, 18, 24 and 32 measured on day 14 by open field test; assay type: functional, organism-based; parameters: dose 1 mg/kg
Mus musculus [31] = assay: Toxicity in Sabra mouse assessed as morphological changes in neuronal cells at 1 mg/kg, ip administered on day 8, 9, 10, 11, 14, 18, 24 and 32 by hematoxylin and eosin staining-based histopathological analysis; assay type: organism-based; parameters: dose 1 mg/kg, route intraperitoneal; conditions: in vivo
Mus musculus [32] = assay: Enhancement of cognitive function in Sabra mouse at 10 mg/kg, ip administered on day 6 to 10 by eight-arm maze test relative to control; assay type: functional, organism-based; parameters: dose 10 mg/kg
Mus musculus [33] = assay: Enhancement of motor activity in Sabra mouse at 1 mg/kg, ip administered on day 6 to 10 by open field test relative to control; assay type: functional; conditions: route intraperitoneal

## CCCCCCCC/C=C\CCCCCCCC(=O)N[C@H](CO)C(C)C
Mus musculus [1]
  Activity: 85.9%
Mus musculus [2]
  Activity: -3.2%
Mus musculus [3]
  Activity: -1.8%
Mus musculus [4]
  Activity: -4.7%
Mus musculus [5]
  Activity: -1.79%
Mus musculus [6]
  Activity: -4.05%
Mus musculus [7]
  Activity: 30%
Mus musculus [8]
  Activity: -2.2%
Mus musculus [9]
  Activity: Active
Mus musculus [10]
  Activity: -4.6%
Mus musculus [11]
  Activity: Active
Mus musculus [12]
  Activity: 2.1%
Mus musculus [13]
  Activity: Not Active
Mus musculus [14]
  Activity: -5.49%
Mus musculus [15]
  Activity: Non-toxic
Mus musculus [16]
  Activity: -21.6%
Mus musculus [17]
  Activity: -7.31%
Mus musculus [18]
  Activity: 93.8%
Mus musculus [19]
  Activity: -1.85%
Mus musculus [20]
  Activity: -3.06%
Mus musculus [21]
  Activity: -7.5%
Mus musculus [22]
  Activity: -5%
Mus musculus [23]
  Activity: -2.4%
Mus musculus [24]
  Activity: -4.9%
Mus musculus [25]
  Activity: -5.2%
Mus musculus [26]
  Activity: 0.7%
Mus musculus [27]
  Activity: 22%
[28]
  inhibition: 1%
Mus musculus [29]
  Activity: -6.9%
Mus musculus [30]
  Activity: Active
Mus musculus [31]
  Activity: Non-toxic
Mus musculus [32]
  Activity: inactive
Mus musculus [33]
  Activity: 20%
